How the values were obtained:
[1] = tested on: TNFα production; experiment: Cytokine production suppressing activity using human whole blood (LPS stimulation); assay type: cell-based; settings: LPS 200 ng/mL, 37° C., 5 hours
Procedure: Using human whole blood, the inhibitory action of Compound (I) on the TNFα production by LPS stimulation was studied by a method partially modified from the method described in Journal of Medicinal Chemistry (2003, Vol. 46, pp. 4676-4686).
A solution of each test compound in 100% DMSO and human blood were mixed in a 96-well flat-bottom plate. Thereafter, LPS (Final Concentration: 200 ng/mL) was added, and the resulting mixture was allowed to react at 37° C. for 5 hours (the final concentration of DMSO was 0.2%). After the reaction, the resultant was centrifuged for 20 minutes at room temperature, and the supernatant was collected. For the measurement of the TNFα amount in the supernatant, a human cytokine kit (CIS bio international) was used. As a comparative control compound, Comparative Compound 2 was used.

[2] = molecular target: human p38 MAPK α (Homo sapiens (Human), UniProt Q16539); experiment: Evaluation of p38 MAPK inhibitory activity (Alpha Screen, ATF2 phosphorylation); assay type: biochemical; settings: p38α/SAPK2a 1.5 nM, ATP 100 μM, biotinylated ATF2 30 nM
Sequence of human p38 MAPK α (Q16539 whole entry): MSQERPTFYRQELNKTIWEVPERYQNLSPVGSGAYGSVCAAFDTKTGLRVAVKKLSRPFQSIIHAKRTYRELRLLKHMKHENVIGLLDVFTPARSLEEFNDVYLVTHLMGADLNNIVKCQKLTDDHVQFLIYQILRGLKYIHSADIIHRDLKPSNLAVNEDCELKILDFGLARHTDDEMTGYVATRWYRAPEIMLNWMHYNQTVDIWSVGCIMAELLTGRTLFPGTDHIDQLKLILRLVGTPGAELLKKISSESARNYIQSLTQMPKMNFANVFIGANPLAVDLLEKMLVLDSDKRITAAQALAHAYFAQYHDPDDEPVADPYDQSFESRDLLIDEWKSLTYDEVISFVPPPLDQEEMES
Procedure: Using human p38 MAPK α, the p38 MAPK inhibitory activity of Compound (I) was studied by a method partially modified from the method described in Current Medicinal Chemistry (2004, No. 11, pp. 721-730).
A solution of each test compound solution in 100% DMSO and a p38α/SAPK2a solution (Final Concentration: 1.5 nM) (Invitrogen) were added to a 384-well plate, and then the plate was incubated at room temperature in a dark place for 1 hour. Thereafter, ATP (Final Concentration: 100 μM), which is a phosphate donor, and biotinylated ATF2 (Final Concentration: 30 nM) (upstate), which is a substrate, were added, and the resulting mixture was allowed to react at room temperature in a dark place for 1 hour (the final concentration of DMSO was 0.25%). After the reaction, an anti-phosphorylated ATF2 antibody (Final Concentration: 1 nM) (Cell Signaling), anti-IgG acceptor beads (Final Concentration: 20 μg/mL) (PerkinElmer) and streptavidin donor beads (Final Concentration: 20 μg/mL) (PerkinElmer) were added, and the resultant was incubated at room temperature in a dark place for 1 hour. Using a microplate analyzer (Fusion-α, Packard) in Alpha Screen method (Amplified Luminescent Proximity Homogeneous Assay), the light emission was detected. The IC50 value of each compound was calculated by sigmoidal dose-response regression using Prism 4.02 (GraphPad Software, Inc.).

[3] = Pharmacokinetic evaluation in mouse (oral); assay type: in vivo; settings: male; BALB/c mouse, oral 0.8 mg/kg, plasma
Procedure: Each test compound was dissolved in 10% HP-β-CD (Nihon Shokuhin Kako Co., Ltd.) to prepare a solution to be administered (0.08 mg/mL, as a solution to be administered for oral administration). To each BALB/c mouse (male, 7-week old, Charles River Laboratories Japan, Inc.), each compound was orally administered at a dose of 0.8 mg/kg. Blood was collected from the jugular vein or heart with time up to 24 hours after the administration. The obtained blood was centrifuged to collect blood plasma. The blood plasma was pretreated by methanol extraction method, and the concentration of the compound was analyzed by LC/MS/MS (ESI positive mode).
In this table, Cmax represents a maximum plasma concentration; and AUC0-∞ represents an area under the curve of the plasma concentration of the compound from after the compound administration to infinite time.

[4] = tested on: ICR mouse; experiment: Evaluation of hepatotoxicity in mouse (plasma AST); assay type: in vivo; settings: oral 500 mg/kg, plasma on the day after administration
Procedure: Compound (I) was suspended in 0.5% methylcellulose (Wako Pure Chemical Industries, Ltd.) to prepare a 50 mg/mL solution to be administered. To each ICR mouse (male, 7-week old, Charles River Laboratories Japan, Inc.), each compound was orally administered at a dose of 500 mg/kg. On the day after the administration, blood was collected from the posterior vena cava, and the obtained blood was centrifuged to collect blood plasma. AST (aspartate aminotransferase) value, which is a marker of hepatic disorders in blood plasma, was measured with a biochemistry automatic analyzer (Hitachi 7070, Hitachi, Ltd.). Comparative Compound 4 was suspended in 0.5% sodium carboxymethylcellulose (Wako Pure Chemical Industries, Ltd.) before use.

| Structure (SMILES) | IC50 [1] | IC50 [2] | other results |
| --- | --- | --- | --- |
| CCC(C)(C)c1cc(NC(=O)N[C@@H]2Cc3ccccc3[C@@H]2O)c(OC)c([C@H](O)C(F)(F)F)c1 (single isomer, unassigned) [Compound 123b] | – | 29 nM | – |
| COc1c(NC(=O)NC2Cc3ccccc3C2)cc(C(C)(C)C)cc1C(O)C(F)(F)F (stereo not drawn) [Comparative Compound 1, 1-(5-tert-butyl-2-methoxy-3-(2,2,2-trifluoro-1-hydroxyethyl)phenyl)-3-(2,3-dihydro-1H-indene-2-yl)urea, reference compound] | – | 117 nM | – |
| Cc1ccc(-n2nc(C(C)(C)C)cc2NC(=O)Nc2ccc(OCCN3CCOCC3)c3ccccc23)cc1 [Comparative Compound 4, 1-(3-tert-butyl-1-p-tolyl-1H-pyrazol-5-yl)-3-(4-(2-morpholinoethoxy)naphthalen-1-yl)urea, reference compound] | – | – | AST value [4]: 145 U/L |
| C[S+]([O-])c1ccc(-c2nc(-c3ccncc3)c(-c3ccc(F)cc3)[nH]2)cc1 (stereo not drawn) [Comparative Compound 5, 4-(4-(4-fluorophenyl)-2-(4-(methylsulfinyl)phenyl)-1H-imidazol-5-yl)pyridine] | – | – | AUC(0-inf) [3]: 59.8 ng·h/mL; Cmax [3]: 11.4 ng/mL |
| COc1c(CO)cc(C(C)(C)C)cc1NC(=O)N[C@@H]1Cc2c(F)cccc2[C@@H]1O [Compound 3, 1-(5-tert-butyl-3-(hydroxymethyl)-2-methoxyphenyl)-3-((1S,2R)-4-fluoro-1-hydroxy-2,3-dihydro-1H-indene-2-yl)urea] | 235 nM | – | – |

Further lines, with some results ahead:

| IC50 [1] | IC50 [2] | Structure (SMILES) | other results |
| --- | --- | --- | --- |
| 109 nM | 24 nM | COc1cccc2c1C[C@@H](NC(=O)Nc1cc(C(C)(C)C)cc([C@H](O)C(F)(F)F)c1OC)[C@H]2O (single isomer, unassigned) [Compound 52b] | – |
| 115 nM | 16 nM | COc1c(NC(=O)N[C@@H]2Cc3c(F)cccc3[C@@H]2O)cc(N2CCOCC2)cc1[C@H](O)C(F)(F)F (single isomer, unassigned) [Compound 84b] | – |
| 5190 nM | – | COc1c(CO)cc(C(C)(C)C)cc1NC(=O)NC1Cc2ccccc2C1 [Comparative Compound 2, 1-(5-tert-butyl-3-(hydroxymethyl)-2-methoxyphenyl)-3-(2,3-dihydro-1H-indene-2-yl)urea] | AUC(0-inf) [3]: 116 ng·h/mL; Cmax [3]: 79.7 ng/mL |
| – | 18 nM | COc1c(NC(=O)N[C@@H]2Cc3ccccc3[C@@H]2O)cc(C(C)(C)C)cc1C(N)C(F)(F)F (stereo partly drawn) [Compound 47b, 1-(3-(1-amino-2,2,2-trifluoroethyl)-5-tert-butyl-2-methoxyphenyl)-3-((1S,2R)-1-hydroxy-2,3-dihydro-1H-indene-2-yl)urea] | – |
| 182 nM | – | COc1c(NC(=O)N[C@H]2Cc3ccc(F)cc3[C@H]2O)cc(C(C)(C)C)cc1[C@@H](O)C(F)(F)F [Compound 60b, 1-(5-tert-butyl-2-methoxy-3-((R)-2,2,2-trifluoro-1-hydroxyethyl)phenyl)-3-(cis-6-fluoro-1-hydroxy-2,3-dihydro-1H-indene-2-yl)urea] | – |
